# Source: patent US20260158021A1, “PREVENTION AND TREATMENT OF ORGAN FIBROSIS” (CORNELL UNIVERSITY, priority 2018, published 2026)
# Tests used:
# C-P4H = C-P4H abundance in stimulated human fibroblasts (immunofluorescence, Western blot); type: cell-based; settings: for C-P4H immunofluorescence intensity: human fibroblasts exposed to TGF-β or mast cell exosomes
# Description: FIG. 9. Roxadustat inhibits the increase in C-[…] in stimulated human fibroblasts. Immunoexpression of prolyl-4-hydroxylase […]). […] FIG. 19A-19E. […] C. […] Actin was run as the loading control. […] All assays were performed in triplicate.
# [1] = tested on: smooth muscle actin (SMA); test: Western blot of smooth muscle actin (SMA) in lung fibroblasts; type: cell-based, human; settings: Western blotting
# human lung fibroblasts [2] = test: Collagen secretion by human lung fibroblasts (newly secreted collagen in supernatant, Sircol); type: cell-based; settings: for collagen secretion: RXD, normalized for total protein
# Description: (§1) Human lung fibroblasts were exposed to TGF-β (10 ng/ml) or co-cultured with EXO([…]), and supernatants were collected for measurement of newly secreted collagen. […] Cell lysates were used to quantify total protein/well for normalization. Data are means±SEM of three separate experiments (n=3), each point run in triplicate. *P<0.05, ***P<0.001, ***P<0.0001.
# (§2) FIG. 19A-19E. […] C. […] Actin was run as the loading control. […] All assays were performed in triplicate.
# (FIG. 3A). All values presented are normalized for total protein.
# UUO kidney = test: Unilateral ureteral obstruction (UUO) model of renal fibrosis, Masson's trichrome collagen staining; type: in vivo, Mice C57BL/6J
# Description: All animal treatments and experiments were approved by the Institutional Animal Care and Use Committee of Weill Cornell Medical College. Mice were anesthetized intraperitoneally with a cocktail of ketamine (90 mg/kg) and xylazine (4 mg/kg). Mice C57BL/6J) underwent right unilateral ureteral ligation with 4-0 silk suture through an abdominal midline incision under sterile conditions. Sham-operated control (CON) animals underwent identical operations, however, with manipulation of the right ureter only. Delivery of Roxadustat (10 mg/kg) on days 0, 2, 4, 6, 8, was administered IP. Mice were sacrificed on Day 14.
# Kidneys were harvested and fixed in 10% neutral buffered formalin followed by embedding in paraffin. Sections (5 um) were collected and Masson's trichrome staining was performed using a kit (Richard-Allen Scientific) to detect collagen (blue stain). Slides of paraffinized tissue sections were deparaffinized, rehydrated, and washed in distilled water. Sections were subsequently stained using components from the trichrome kit and according to the manufacturer's protocol. After dehydrating and clearing in xylene, the sections were mounted with coverslips in Vectamount (Vector Laboratories). Tissue sections were examined with an inverted epifluorescence microscope (Nikon Eclipse TE 2000-U) interfaced to a SPOT Insight 2 megapixel color camera (Diagnostic Instruments).
# human lung fibroblasts [3] = test: Fibroblast proliferation by total protein content of fibroblast cell lysates; type: cell-based; settings: +RXD+TGF-β; control 0.800, +TGF-β 1.138
# Description: as §1
# HLF = test: Proline hydroxylation (LC-MC of extracted proteins) and hydroxyproline content in HLF; type: cell-based, human
# Description: as §2
# c-P4H tetramer = test: Non-denaturing Western blot of human lung fibroblast homogenates probed for c-P4H α-subunit; type: cell-based; settings: RXD 10 mg/ml; alone, +EXO, +TGF-β
# Description: FIG. 4. […] Western blotting on a gradient gel was performed on human lung fibroblast homogenates in non-denaturing conditions and probed with anti-α-subunit monomer (60 kD). Tetramer is found at 240 kD at arrow.
# [4] = tested on: bleomycin-induced pulmonary fibrosis; test: Bleomycin experimental mouse model of pulmonary fibrosis; type: in vivo, mice (C57BL/6J)
# Description: FIG. 11A-11B. In Vivo Murine Model of pulmonary fibrosis. […] Representative micrographs of Masson's trichrome-stained lungs from bleomycin-treated mice from the 14d time point. […] FIG. 12. […] Sal=Saline vehicle. FIG. 20A-20E. […] NS=not significant. N=5 mice/group. Scale bar=250 μm. […] Mice were sacrificed on day 21.
# human lung fibroblasts [5] = test: Fibroblast migration/accumulation/foci formation in transwell plates; type: cell-based; settings: qualitative; +TGF-β (10 ng/ml) +RXD (10 mg/ml)
# [6] = tested on: mast cells (human mastocytoma cells); test: Mast cell degranulation after high oxygen and recovery in room air (β-hexosaminadase, tryptase release); type: cell-based; settings: 72 h; 1 day high oxygen then 2 days room air (HO^rec) +RXD 10 mg/ml
# Description: FIG. 5A-5C. […] C. […] NS=not significant
# Mast cell degranulation was assessed by measuring the release of β-hexosaminadase (β-hex), a classic indicator of mast cell degranulation (FIG. 5A) and Tryptase (FIG. 5B). […] This protocol was designed to mimic the clinical protocol of giving IPF patients hospitalized with acute exacerbations high oxygen then followed by return to room air.
smiles,measurement,setting,value
Cc1nc(C(=O)NCC(=O)O)c(O)c2ccc(Oc3ccccc3)cc12 [RXD],C-P4H abundance in Western blots,"C-P4H; HLF lysates +MC-EXO and +TGFβ, actin loading control",decreased C-P4H abundance
same,C-P4H immunofluorescence intensity,C-P4H,inhibited the increase in C-P4H fluorescence intensity
same,C-P4H immunofluorescence intensity,C-P4H; listed as Roxadustat,inhibits the increase in C-P4H
same,SMA abundance,[1],decreased
same,secreted collagen (Sircol),"human lung fibroblasts [2]; FIG. 19E, HLF untreated and treated with +MC-EXO and +TGF-β",blocked
same,collagen secretion,human lung fibroblasts [2]; fibroblasts co-cultured with mast cell exosomes (40 g/ml),inhibits collagen secretion
same,collagen secretion,human lung fibroblasts [2]; fibroblasts exposed to exogenous TGF-β1 (10 ng/ml),inhibits collagen secretion
same,collagen secretion,human lung fibroblasts [2]; untreated fibroblasts,inhibits collagen secretion
same,"renal fibrosis, collagen staining of UUO kidney cortex and medulla","UUO kidney; Roxadustat 10 mg/kg IP days 0, 2, 4, 6, 8, Day 14",lessened the fibrosis
same,"quantified collagen (blue) staining, UUO kidney cortex and medulla","UUO kidney; pixel by pixel, P<0.0001 UUO vs UUO+RXD in cortex and in medulla",Reduces Fibrosis
same,"quantified collagen staining, control cortex and medulla with and without RXD",UUO kidney; sham control kidneys,no significant difference
same,total protein content of fibroblast cell lysates (fibroblast proliferation),human lung fibroblasts [3],0.828 μg/ml/well
same,proline hydroxylation in collagens 1 and 3,HLF; LC-MC analysis of HLF extracted proteins,prevented proline hydroxylation
same,hydroxyproline in HLFs,HLF; TGF-β-induced increase,inhibited the TGF-β-induced increase in hydroxyproline
same,α-subunit monomer abundance (60 kD band),c-P4H tetramer,increased the α-subunit monomer abundance in all cases
same,"severity of fibrosis, Masson's trichrome stained lungs","[4]; RXD 10 mg/kg days 7-19 every other day, sacrifice day 21",lessened the severity of fibrosis
same,lung hydroxyproline content,"[4]; RXD 10 mg/kg days 7-19 every other day, sacrifice day 21, P<0.01 Bleo versus Bleo+RXD",significantly decreased
same,number of mast cells in vivo in pulmonary fibrosis,"[4]; bleo vs bleo+RXD, P<0.05",reduced
same,lung compliance (pulmonary function tests),[4]; bleomycin-induced decrease,normalizes the bleomycin-induced decrease in lung compliance
same,"pulmonary fibrosis, Masson's trichrome-stained lungs","[4]; bleomycin-treated mice, 14d time point",reduced
same,"fibroblast migration, accumulation, and foci formation",human lung fibroblasts [5],"prevents fibroblast migration, accumulation, and foci formation"
same,mast cell degranulation (β-hexosaminadase and mast cell tryptase in supernatants),[6],decreases mast cell degranulation
